Results reported in ChEMBL document CHEMBL1201862, “PubChem BioAssay data set” (2004).
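Exposure lasted 48 hours, with cells grown in 96-well plates and compounds tested at five concentrations. GI50 is the concentration that inhibits growth by half.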 Active and inactive are the calls of the source. No stated cut-off is given here; in the data, active = GI50 up to about 1.1 µM and inactive = higher.

What was measured:
Experiment in all cases: NCI tumour cell line growth inhibition, 48 h
OVCAR-4 = tested on: OVCAR-4
Malme-3M = tested on: Malme-3M
UACC-62 = tested on: UACC-62
MOLT-4 = tested on: MOLT-4
A498 = tested on: A498
UO-31 = tested on: UO-31
ACHN = tested on: ACHN
SN12C = tested on: SN12C
OVCAR-8 = tested on: OVCAR-8
EKVX = tested on: EKVX
OVCAR-3 = tested on: OVCAR-3
SK-MEL-5 = tested on: SK-MEL-5
NCI-H460 = tested on: NCI-H460
HCT-116 = tested on: HCT-116
OVCAR-5 = tested on: OVCAR-5
HCC 2998 = tested on: HCC 2998
SK-MEL-2 = tested on: SK-MEL-2
LOX IMVI = tested on: LOX IMVI
HOP-92 = tested on: HOP-92
HL-60 = tested on: HL-60

Measured: GI50

CCCSc1cc(Cl)c(C)cc1S(=O)(=O)n1ccnc1OCCCN(C)C
inactive: OVCAR-4 > 100 µM | Malme-3M > 100 µM | UACC-62 > 100 µM | MOLT-4 > 100 µM | A498 > 100 µM | UO-31 > 100 µM | ACHN > 100 µM | SN12C > 100 µM | OVCAR-8 > 100 µM | EKVX > 100 µM | OVCAR-3 > 100 µM | SK-MEL-5 > 100 µM | NCI-H460 > 100 µM | HCT-116 > 100 µM | OVCAR-5 > 100 µM | HCC 2998 > 100 µM | SK-MEL-2 > 100 µM | LOX IMVI > 100 µM

O=C1C2C3C=CC(C2C(=O)N1CO)C1C2C(=O)N(CO)C(=O)C2C31 (stereo not drawn)
inactive: OVCAR-4 > 45.8 µM | Malme-3M > 100 µM | UACC-62 > 100 µM | MOLT-4 74.1 µM | A498 > 100 µM | UO-31 > 100 µM | ACHN > 44.9 µM | SN12C > 69.8 µM | HOP-92 > 100 µM | OVCAR-8 36.4 µM | EKVX > 100 µM | OVCAR-3 > 92.9 µM | SK-MEL-5 > 83 µM | NCI-H460 27.9 µM | HCT-116 > 44.5 µM | OVCAR-5 > 100 µM | HCC 2998 > 100 µM | SK-MEL-2 > 100 µM | LOX IMVI > 45 µM

CC(=O)NNc1nc(C)c(C(/C=C/c2ccc([N+](=O)[O-])cc2)=N/NC(N)=O)s1
inactive: OVCAR-4 > 100 µM | Malme-3M > 100 µM | UACC-62 > 100 µM | MOLT-4 > 100 µM | A498 > 100 µM | UO-31 > 100 µM | ACHN > 100 µM | SN12C > 100 µM | HOP-92 > 100 µM | OVCAR-8 > 100 µM | EKVX 44.8 µM | OVCAR-3 > 100 µM | SK-MEL-5 > 100 µM | NCI-H460 > 100 µM | HCT-116 > 100 µM | OVCAR-5 > 100 µM | HCC 2998 > 100 µM | SK-MEL-2 > 100 µM | LOX IMVI > 100 µM

O=C(CCc1nnc2s/c(=C\c3ccccc3Cl)c(=O)n12)Nc1cc(Cl)ccc1Cl
inactive: OVCAR-4 > 100 µM | Malme-3M > 100 µM | UACC-62 > 100 µM | MOLT-4 > 100 µM | UO-31 > 100 µM | ACHN > 100 µM | HL-60 > 100 µM | SN12C > 100 µM | HOP-92 > 100 µM | OVCAR-8 > 100 µM | EKVX > 100 µM | OVCAR-3 > 100 µM | SK-MEL-5 > 100 µM | NCI-H460 > 100 µM | HCT-116 > 100 µM | OVCAR-5 > 100 µM | HCC 2998 > 100 µM | SK-MEL-2 > 100 µM | LOX IMVI > 100 µM

COc1cc(/C=C2\C[C@H]3[C@@H]4CC=C5C[C@@H](OC(C)=O)CC[C@]5(C)[C@H]4CC[C@]3(C)\C2=N\O)cc(OC)c1OC
inactive: OVCAR-4 3.37 µM | Malme-3M 8.95 µM | UACC-62 6.73 µM | MOLT-4 2.36 µM | UO-31 3.86 µM | ACHN 3.75 µM | HL-60 2.88 µM | SN12C 6.37 µM | HOP-92 2.59 µM | OVCAR-8 4.29 µM | EKVX 4.71 µM | OVCAR-3 6.27 µM | SK-MEL-5 3.61 µM | NCI-H460 4.08 µM | HCT-116 4.53 µM | OVCAR-5 15 µM | HCC 2998 16 µM | SK-MEL-2 7.01 µM | LOX IMVI 4.32 µM

CC1(C)C=Cc2c(cc3oc4ccc5c(c4c(=O)c3c2O)C=CC(C)(C)O5)O1
inactive: OVCAR-4 > 100 µM | Malme-3M > 100 µM | UACC-62 > 100 µM | MOLT-4 > 100 µM | A498 > 100 µM | UO-31 > 100 µM | ACHN > 100 µM | SN12C > 100 µM | HOP-92 > 100 µM | OVCAR-8 > 100 µM | EKVX > 100 µM | OVCAR-3 > 100 µM | SK-MEL-5 > 100 µM | HCT-116 > 100 µM | OVCAR-5 > 100 µM | HCC 2998 > 100 µM | SK-MEL-2 > 100 µM | LOX IMVI > 100 µM

O=C1c2ccccc2C(=O)c2nc3c(O)cccc3cc21
inactive: OVCAR-4 12.9 µM | Malme-3M 53.5 µM | UACC-62 37.3 µM | MOLT-4 3.38 µM | A498 25.9 µM | UO-31 14.5 µM | ACHN 27 µM | SN12C 25.4 µM | OVCAR-8 26 µM | EKVX 14.5 µM | OVCAR-3 1.87 µM | SK-MEL-5 3.6 µM | NCI-H460 9.08 µM | HCT-116 4.12 µM | OVCAR-5 89.7 µM | HCC 2998 35.9 µM | SK-MEL-2 > 100 µM | LOX IMVI 13.9 µM

COC1C(=O)CCC2(CO2)C1(O)C1(C)OC1CC=C(C)C (stereo not drawn)
inactive: OVCAR-4 > 100 µM | UACC-62 13.7 µM | MOLT-4 25.1 µM | A498 26.3 µM | UO-31 28.4 µM | ACHN 17.6 µM | SN12C > 100 µM | HOP-92 25.8 µM | OVCAR-8 30.9 µM | EKVX 93.5 µM | OVCAR-3 25.2 µM | SK-MEL-5 14.7 µM | NCI-H460 27.3 µM | HCT-116 11.3 µM | OVCAR-5 51.5 µM | HCC 2998 17.7 µM | SK-MEL-2 27.6 µM | LOX IMVI 5.21 µM
